Measurements taken from patent US9296704B2, “Substituted pyrimidines as protein kinase inhibitors” (CELGENE AVILOMICS RESEARCH, INC., priority 2007, dated 2016).

Legend:
Format in all cases: biochemical
[1] = target: T1, JAK3 (Homo sapiens, UniProt P52333); assay: Omnia assay for potency against JAK3; conditions: read-out: JAK3 Inhibition
T1 sequence (P52333 1-1124): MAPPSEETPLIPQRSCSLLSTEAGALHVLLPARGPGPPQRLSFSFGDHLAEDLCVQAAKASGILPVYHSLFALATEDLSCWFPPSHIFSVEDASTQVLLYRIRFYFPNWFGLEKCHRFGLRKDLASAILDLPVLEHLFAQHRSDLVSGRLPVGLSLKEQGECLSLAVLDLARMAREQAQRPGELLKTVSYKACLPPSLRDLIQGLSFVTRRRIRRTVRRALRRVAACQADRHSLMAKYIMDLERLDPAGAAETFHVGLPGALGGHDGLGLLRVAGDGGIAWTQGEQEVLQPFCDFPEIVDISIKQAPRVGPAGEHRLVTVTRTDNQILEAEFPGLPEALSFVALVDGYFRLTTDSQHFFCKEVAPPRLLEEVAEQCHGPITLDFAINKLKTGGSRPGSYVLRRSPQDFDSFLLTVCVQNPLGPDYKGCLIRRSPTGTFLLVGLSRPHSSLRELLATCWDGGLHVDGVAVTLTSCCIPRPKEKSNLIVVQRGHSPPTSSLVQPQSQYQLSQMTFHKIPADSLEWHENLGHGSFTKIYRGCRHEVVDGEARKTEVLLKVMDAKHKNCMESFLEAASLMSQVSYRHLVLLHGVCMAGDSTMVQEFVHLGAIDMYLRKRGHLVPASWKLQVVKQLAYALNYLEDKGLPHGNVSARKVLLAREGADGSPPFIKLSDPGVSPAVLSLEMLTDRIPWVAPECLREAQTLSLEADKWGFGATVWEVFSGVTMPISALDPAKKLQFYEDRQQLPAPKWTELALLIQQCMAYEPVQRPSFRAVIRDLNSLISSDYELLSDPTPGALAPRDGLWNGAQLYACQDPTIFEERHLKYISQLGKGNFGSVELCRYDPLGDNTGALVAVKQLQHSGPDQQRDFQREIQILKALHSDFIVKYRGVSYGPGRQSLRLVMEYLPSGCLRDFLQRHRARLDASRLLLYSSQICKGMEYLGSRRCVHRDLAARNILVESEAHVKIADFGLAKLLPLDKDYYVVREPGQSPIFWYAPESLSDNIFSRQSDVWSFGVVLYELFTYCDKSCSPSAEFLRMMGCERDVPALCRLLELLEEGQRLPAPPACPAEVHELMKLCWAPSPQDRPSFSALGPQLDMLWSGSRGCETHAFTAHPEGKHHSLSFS
Text: (§1) The protocol below describes continuous-read kinase assays to measure inherent potency of compounds against active forms of EGFR (WT) and EGFR (T790M/L858R) enzymes. The mechanics of the assay platform are best described by the vendor (Invitrogen, Carlsbad, Calif.) on their website at the following URL: http://www.invitrogen.com/content.cfm?pageid=11338 or http://www.invitrogen.com/site/us/en/home/Products-and-Services/Applications/Drug-Discovery/Target-and-Lead-Identification-and-Validation/KinaseBiology/KB-Misc/Biochemical-Assays/Omnia-Kinase-Assays.html.
(§2) Briefly, 10× stocks of EGFR-WT (PV3872) from Invitrogen and EGFR-T790M/L858R (40350) from BPS Bioscience, San Diego, Calif., 1.13×ATP (AS001A) and appropriate Tyr-Sox conjugated peptide substrates (KCZI001) were prepared in 1× kinase reaction buffer consisting of 20 mM Tris, pH 7.5, 5 mM MgCl2, 1 mM EGTA, 5 mM β-glycerophosphate, 5% glycerol (10× stock, KB002A) and 0.2 mM DTT (DS001A). 5 μL of each enzyme were pre-incubated in a Corning (#3574) 384-well, white, non-binding surface microtiter plate (Corning, NY) for 30 min. at 27° C. with a 0.5 μL volume of 50% DMSO and serially diluted compounds prepared in 50% DMSO. Kinase reactions were started with the addition of 45 μL of the ATP/Tyr-Sox peptide substrate mix and monitored every 30-90 seconds for 60 minutes at λex360/λem485 in a Synergy^4 plate reader from BioTek (Winooski, Vt.). At the conclusion of each assay, progress curves from each well were examined for linear reaction kinetics and fit statistics (R^2, 95% confidence interval, absolute sum of squares). Initial velocity (0 minutes to ˜30 minutes) from each reaction was determined from the slope of a plot of relative fluorescence units vs time (minutes) and then plotted against inhibitor concentration to estimate IC50 from log [Inhibitor] vs Response, Variable Slope model in GraphPad Prism from GraphPad Software (San Diego, Calif.).
The Omnia Assay Protocol for potency assessment against JAK3 is performed in a substantially similar manner as that described in Example 25 above except that the modified JAK3-optimized reagent conditions are: • [JAK3]=5 nM, [ATP]=5 μM, [Y12-Sox]=5 μM (ATP KMapp ˜[…]).

[2] = target: T2, EGFR (WT) (Homo sapiens, UniProt P00533); assay: Omnia continuous-read kinase assay, EGFR (WT); conditions: read-out: EGFR inhibtion
T2 construct: purchased Invitrogen PV3872
T2 sequence (P00533 25-1210): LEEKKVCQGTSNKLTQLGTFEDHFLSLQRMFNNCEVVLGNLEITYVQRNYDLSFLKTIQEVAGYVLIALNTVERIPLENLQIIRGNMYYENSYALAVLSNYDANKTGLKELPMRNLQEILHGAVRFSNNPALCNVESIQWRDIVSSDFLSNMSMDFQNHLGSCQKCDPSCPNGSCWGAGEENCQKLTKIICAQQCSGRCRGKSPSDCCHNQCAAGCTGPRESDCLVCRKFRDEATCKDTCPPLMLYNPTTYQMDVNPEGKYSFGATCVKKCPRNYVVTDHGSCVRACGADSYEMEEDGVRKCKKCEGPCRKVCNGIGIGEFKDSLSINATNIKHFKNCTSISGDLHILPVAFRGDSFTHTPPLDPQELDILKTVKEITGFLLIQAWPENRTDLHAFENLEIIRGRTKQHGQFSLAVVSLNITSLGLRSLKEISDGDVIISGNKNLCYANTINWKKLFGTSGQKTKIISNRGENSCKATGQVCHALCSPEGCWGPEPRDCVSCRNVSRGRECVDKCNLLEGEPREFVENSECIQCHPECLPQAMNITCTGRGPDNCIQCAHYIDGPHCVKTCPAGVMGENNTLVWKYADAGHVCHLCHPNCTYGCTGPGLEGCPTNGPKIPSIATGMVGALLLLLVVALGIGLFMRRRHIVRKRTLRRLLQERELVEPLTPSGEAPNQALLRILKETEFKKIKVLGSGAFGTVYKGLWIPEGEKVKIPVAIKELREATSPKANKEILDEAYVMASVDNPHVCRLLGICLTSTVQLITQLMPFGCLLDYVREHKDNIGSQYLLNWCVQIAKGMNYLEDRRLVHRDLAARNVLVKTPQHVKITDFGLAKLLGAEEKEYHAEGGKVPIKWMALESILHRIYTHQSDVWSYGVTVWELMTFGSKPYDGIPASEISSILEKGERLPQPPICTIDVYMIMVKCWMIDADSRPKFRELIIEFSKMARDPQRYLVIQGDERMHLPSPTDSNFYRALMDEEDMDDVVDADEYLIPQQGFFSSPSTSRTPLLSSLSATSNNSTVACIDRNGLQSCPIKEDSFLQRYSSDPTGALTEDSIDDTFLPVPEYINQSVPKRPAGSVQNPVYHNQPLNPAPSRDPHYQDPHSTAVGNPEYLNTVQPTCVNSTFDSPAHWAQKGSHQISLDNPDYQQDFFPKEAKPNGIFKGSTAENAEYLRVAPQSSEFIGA
Text: as §1, §2
(§3) The EGFR-WT- and EGFR T790M/L858R-modified optimized reagent conditions are: • [EGFR-WT]=5 nM, [ATP]=[…], [Y12-Sox]=[…]; and [EGFR-T790M/L858R]=3 nM, [ATP]=[…], [Y12-Sox]=[…].

[3] = target: BTK (Homo sapiens, UniProt Q06187); assay: Omnia assay for potency against BTK; conditions: read-out: BTK Inhibition
Sequence of BTK (Q06187 whole entry): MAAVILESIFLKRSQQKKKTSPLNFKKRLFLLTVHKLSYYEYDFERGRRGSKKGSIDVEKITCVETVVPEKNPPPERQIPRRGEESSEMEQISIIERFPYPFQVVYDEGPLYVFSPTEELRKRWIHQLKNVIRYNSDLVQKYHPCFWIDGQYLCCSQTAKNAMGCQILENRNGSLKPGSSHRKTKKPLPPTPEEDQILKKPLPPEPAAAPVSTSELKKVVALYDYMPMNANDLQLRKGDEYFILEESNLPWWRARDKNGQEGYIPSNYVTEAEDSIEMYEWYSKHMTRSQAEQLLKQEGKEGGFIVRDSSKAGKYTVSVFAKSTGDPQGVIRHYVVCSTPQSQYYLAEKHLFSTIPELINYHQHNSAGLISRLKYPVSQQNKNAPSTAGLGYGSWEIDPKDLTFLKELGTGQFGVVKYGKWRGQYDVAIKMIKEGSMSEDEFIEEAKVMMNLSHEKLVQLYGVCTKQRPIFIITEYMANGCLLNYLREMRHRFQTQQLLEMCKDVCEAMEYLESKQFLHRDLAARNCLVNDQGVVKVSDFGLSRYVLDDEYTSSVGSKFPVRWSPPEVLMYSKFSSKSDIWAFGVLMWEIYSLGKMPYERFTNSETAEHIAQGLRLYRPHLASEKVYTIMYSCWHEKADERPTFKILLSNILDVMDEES
Text: as §1, §2
The Omnia Assay Protocol for potency assessment against BTK is performed in a substantially similar manner as that described in Example 25 above except that the modified BTK-optimized reagent conditions are: • [BTK]=5 nM, [ATP]=[…], [Y5-Sox]=[…] (ATP KMapp ˜[…]).

[4] = target: T3, EGFR (T790M/L858R) (Homo sapiens, UniProt P00533, L858R/T790M); assay: Omnia continuous-read kinase assay, EGFR (T790M/L858R); conditions: read-out: EGFR (T790M/L858R) inhibiton
T3 construct: purchased BPS Bioscience 40350
T3 sequence (P00533 25-1210 T790M/L858R): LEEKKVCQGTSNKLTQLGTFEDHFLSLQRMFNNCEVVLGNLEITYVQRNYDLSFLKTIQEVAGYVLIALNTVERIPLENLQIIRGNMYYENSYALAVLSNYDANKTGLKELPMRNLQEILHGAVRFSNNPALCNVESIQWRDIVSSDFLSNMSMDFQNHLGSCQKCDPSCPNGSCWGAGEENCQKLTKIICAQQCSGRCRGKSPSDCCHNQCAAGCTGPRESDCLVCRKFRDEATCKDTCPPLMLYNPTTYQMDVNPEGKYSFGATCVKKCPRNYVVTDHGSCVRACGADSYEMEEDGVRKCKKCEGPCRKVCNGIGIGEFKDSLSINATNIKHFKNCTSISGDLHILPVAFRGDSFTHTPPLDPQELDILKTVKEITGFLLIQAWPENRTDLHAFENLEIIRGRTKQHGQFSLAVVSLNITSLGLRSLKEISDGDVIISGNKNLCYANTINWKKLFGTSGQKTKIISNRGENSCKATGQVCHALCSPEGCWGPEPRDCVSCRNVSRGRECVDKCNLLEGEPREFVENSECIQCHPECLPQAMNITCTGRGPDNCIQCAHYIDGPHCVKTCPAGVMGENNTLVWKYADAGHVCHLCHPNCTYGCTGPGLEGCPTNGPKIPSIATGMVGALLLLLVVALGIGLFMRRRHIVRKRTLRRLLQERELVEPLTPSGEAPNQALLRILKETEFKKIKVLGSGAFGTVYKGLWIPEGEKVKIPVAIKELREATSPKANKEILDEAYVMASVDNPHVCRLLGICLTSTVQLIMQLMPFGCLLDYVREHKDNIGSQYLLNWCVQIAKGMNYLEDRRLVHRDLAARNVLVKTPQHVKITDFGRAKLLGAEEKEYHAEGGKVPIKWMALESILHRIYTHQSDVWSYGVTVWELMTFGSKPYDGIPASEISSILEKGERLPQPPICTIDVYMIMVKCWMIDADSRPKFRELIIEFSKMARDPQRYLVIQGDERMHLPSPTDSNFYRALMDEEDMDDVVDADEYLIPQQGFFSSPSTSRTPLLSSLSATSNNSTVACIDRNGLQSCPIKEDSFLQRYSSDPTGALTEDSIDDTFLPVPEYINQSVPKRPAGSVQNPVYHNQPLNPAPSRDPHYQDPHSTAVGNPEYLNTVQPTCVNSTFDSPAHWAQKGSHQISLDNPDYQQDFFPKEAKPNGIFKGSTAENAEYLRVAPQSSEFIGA
Text: as §1, §2, §3

| IC50 [1] | IC50 [2] | IC50 [3] | IC50 [4] | Compound |
| --- | --- | --- | --- | --- |
| 100 to 1000 nM | ≤ 10 nM | ≤ 10 nM |  | C=CC(=O)Nc1cccc(Nc2cc(Nc3cccc(Oc4ccccc4)c3)ncn2)c1 [I-75, N-(3-(6-(3-phenoxyphenylamino)pyrimidin-4-ylamino)phenyl)acrylamide] |
| 10 to 100 nM |  | 10 to 100 nM |  | CN(C)C/C=C/C(=O)Nc1cccc(Nc2cc(Oc3ccc(F)c(Cl)c3)ncn2)c1 [I-92, (E)-N-(3-(6-(3-chloro-4-fluorophenoxy)pyrimidin-4-ylamino)phenyl)-4-(dimethylamino)but-2-enamide] |
| 10 to 100 nM |  | 10 to 100 nM | ≤ 10 nM | [2H]C([2H])([2H])N(C/C=C/C(=O)Nc1cccc(Nc2cc(Nc3ccc(F)c(Cl)c3)ncn2)c1)C([2H])([2H])[2H] [I-61] |
|  | ≤ 10 nM | ≤ 10 nM |  | C=C(C)C(=O)c1cccc(Nc2cc(Nc3ccc(Oc4ccccc4)cc3)ncn2)c1 [I-83, 2-methyl-1-(3-(6-(4-phenoxyphenylamino)pyrimidin-4-ylamino)phenyl)prop-2-en-1-one] |
|  | ≤ 10 nM |  | 10 to 100 nM | CC(Cl)C(=O)Nc1cccc(Nc2cc(Nc3ccc(F)c(Cl)c3)ncn2)c1 (stereo not shown) [I-50)] |
|  | ≤ 10 nM |  |  | CN(C)C/C=C/C(=O)Nc1cccc(Nc2cc(Oc3ccc(F)c(Cl)c3)ncn2)c1 [I-92)] |
| 1000 to 10000 nM | ≤ 10 nM | 1000 to 10000 nM |  | C=CC(=O)N1CCCC(Nc2cc(Nc3ccc(F)c(Cl)c3)ncn2)C1 (stereo not shown) [I-71, 1-(3-(6-(3-chloro-4-fluorophenyamino)pyrimidin-4-ylamino)piperidin-1-yl)prop-2-en-1-one] |
|  | ≤ 10 nM | ≤ 10 nM |  | C=CC(=O)N1CC(C)(C)Oc2ccc(Nc3cc(Oc4cccc(Cl)c4)ncn3)cc21 [I-104, 1-(6-(6-(3-chlorophenoxy)pyrimidin-4-ylamino)-2,2-dimethyl-2H-benzo[b][1,4]oxazin-4(3H)-yl)prop-2-en-1-one] |
| ≤ 10 nM | ≤ 10 nM | ≤ 10 nM |  | CN(C)C/C=C/C(=O)Nc1cccc(Nc2cc(Nc3ccccc3)ncn2)n1 [I-73, (E)-4-(dimethylamino)-N-(6-(6-(phenylamino)pyrimidin-4-ylamino)pyridine-2-yl)but-2-enamide] |
|  | 10 to 100 nM | ≥ 10000 nM |  | CC(C)=CC(=O)c1cccc(Nc2cc(Nc3ccc(Oc4ccccc4)cc3)ncn2)c1 [I-87, 3-methyl-1-(3-(6-(4-phenoxyphenylamino)pyrimidin-4-ylamino)phenyl)but-2-en-1-one] |
|  | ≤ 10 nM | 10 to 100 nM |  | C=CC(=O)Nc1cc(Nc2cc(Oc3cccc(Cl)c3)ncn2)ccc1N1CCOCC1 [I-105, N-(2-morpholino-5-(6-(3-chlorophenoxy)pyrimidin-4-ylamino)phenyl)acrylamide] |
| 1000 to 10000 nM | 10 to 100 nM | 10 to 100 nM |  | C=CC(=O)N1CCC(Nc2cc(Nc3ccc(Oc4ccccc4)cc3)ncn2)C1 (stereo not shown) [I-85, 1-(3-(6-(4-phenoxyphenylamino)pyrimidin-4-ylamino)pyrrolidin-1-yl)prop-2-en-1-one] |
|  | ≤ 10 nM | 100 to 1000 nM |  | C=CC(=O)Nc1cccc(Nc2cc(Oc3ccc(Oc4ccccc4)cc3)ncn2)c1 [I-97, N-(3-(6-(4-phenoxyphenoxy)pyrimidin-4-ylamino)phenyl)acrylamide] |
|  | ≤ 10 nM | 10 to 100 nM |  | C=CC(=O)Nc1cc(Nc2cc(Oc3ccc(Oc4ccccc4)cc3)ncn2)cc(C(=O)NCCOC)c1 [I-102, 3-acrylamido-N-(2-methoxyethyl)-5-(6-(4-phenoxyphenoxy)pyrimidin-4-ylamino)benzamide] |

More lines, now with the values behind:

| Compound | IC50 [1] | IC50 [2] | IC50 [3] | IC50 [4] |
| --- | --- | --- | --- | --- |
| C=CC(=O)N1CCC(Nc2cc(Nc3ccc(F)c(Cl)c3)ncn2)C1 (stereo not shown) [I-70, 1-(3-(6-(3-chloro-4-fluorophenyamino)pyrimidin-4-ylamino)pyrrolidin-1-yl)prop-2-en-1-one] | 100 to 1000 nM | ≤ 10 nM | 100 to 1000 nM |  |
| CN(C)C/C=C/C(=O)Nc1cccc(Nc2cc(Nc3ccc(Oc4ccccc4)cc3)ncn2)c1 [I-62, (E)-N-3-[6-(4-phenoxyphenyl)amino-pyrimidin-4-yl]aminophenyl-4-(dimethylamino)but-2-enamide] | 100 to 1000 nM |  | ≤ 10 nM |  |
| CC(Cl)C(=O)Nc1cccc(Nc2cc(Nc3ccc(F)c(Cl)c3)ncn2)c1 (stereo not shown) [I-50, 2-chloro-N-[3-(6-{3-chloro-4-fluorophenyl}aminopyrimidin-4-yl)aminophenyl]propionamide] | 100 to 1000 nM |  | 1000 to 10000 nM |  |
| C=CC(=O)Nc1ccc(Nc2cc(Nc3ccc(Oc4ccccc4)cc3)ncn2)cc1 [I-80, N-4-[6-(4-phenoxyphenyl)amino-pyrimidin-4-yl]aminophenylpropenamide] | ≥ 10000 nM | 100 to 1000 nM | 1000 to 10000 nM |  |
| C=CC(=O)Nc1cccc(Nc2cc(Oc3ccc(OC)cc3)ncn2)n1 [I-91, N-(6-(6-(4-methoxyphenoxy)pyrimidin-4-ylamino)pyridine-2-yl)acrylamide] |  | ≤ 10 nM | ≤ 10 nM |  |
| C=CC(=O)N1CCCC(Nc2cc(Nc3ccc(Oc4ccccc4)cc3)ncn2)C1 (stereo not shown) [I-86, 1-(3-(6-(4-phenoxyphenylamino)pyrimidin-4-ylamino)piperidin-1-yl)prop-2-en-1one] | ≥ 10000 nM | 10 to 100 nM | 10 to 100 nM |  |
| C#Cc1cccc(Nc2cc(Nc3cccc(NC(=O)C=C)c3)ncn2)c1 [I-68, N-3-[6-(3-ethynylphenylamino)-pyrimidin-4-yl]aminophenyl-2-propenamide] | ≤ 10 nM | ≤ 10 nM | 10 to 100 nM |  |
| C=C(C#N)C(O)c1cccc(Nc2cc(Nc3ccc(Oc4ccccc4)cc3)ncn2)c1 (stereo not shown) [I-84] | ≥ 10000 nM | 10 to 100 nM | 1000 to 10000 nM |  |
| O=C(CCl)Nc1cccc(Nc2cc(Oc3ccc(NC(=O)Nc4ccc(Cl)c(C(F)(F)F)c4)cc3)ncn2)c1 [I-69, N-3-[6-(4-[4-[[4-chloro-3-(trifluoromethyl)phenyl]amino]-carbonyl]amino)phenoxypyrimidin-4-yl]aminophenylchloroacetamide] | 100 to 1000 nM | 10 to 100 nM | 100 to 1000 nM |  |
| C=CC(=O)Nc1cccc(Nc2cc(Sc3ccc(Oc4ccccc4)cc3)ncn2)c1 [I-103, N-(3-(6-(4-phenoxyphenylthio)pyrimidin-4-ylamino)phenyl)acrylamide] |  | ≤ 10 nM | 100 to 1000 nM |  |
